Entries after “also recorded” stand apart in the source; their conditions may differ.
How the values were obtained:
[1] = test system: aromatic L-amino acid decarboxylase (AADC); assay: Expression of DA biosynthesis genes in SHSY-5Y by qPCR; type: cell-based, human; conditions: 12.5 μM, vs vehicle
Excerpt: (§1) FIGS. 72A-72R show the ability of compound 3 to induce the expression of genes involved in dopamine biosynthesis as well as the neuroprotective effects of compound 3 in cell lines and patient iPCs-derived dopaminergic neurons. […] FIGS. 72F, 72G, 72H, and 72I show representative confocal microscopy images of the compound 3-treated primary rat cortical neurons. […] FIG. 72M-72R show the effects of compound 3 on PD patient iPS cell-derived dopaminergic neurons with the LRRK2-G2019S mutation or corrected mutation (GC). Compound 3 treatment rescues neurite length (M, expressed in […]), number (N) and branching (O) phenotypes. Representative images show staining with TuJ, TH and DAPI (FIGS. 72P, 72Q, and 72R).
(§2) Nurr1 regulates the transcription of DA biosynthesis genes (Kim et al. J. Neurochem. 85:622-634, 2003 and Gil et al. J Neurochem 101:142-150, 2007); however, whether this process is mediated by Nurr1:RXRα heterodimers is unknown.

[2] = test system: GCH1; assay: as above; type: cell-based, human; conditions: 12.5 μM, vs vehicle
Excerpt: as §1, §2

[3] = test system: TH; assay: as above; type: cell-based, human; conditions: 12.5 μM, vs vehicle
Excerpt: as §1, §2

[4] = test system: ASYN transgenic mice; assay: Striatal dopamine levels in ASYN transgenic mice by HPLC; type: in vivo, mouse; conditions: single IP 10 mg/kg, vs vehicle
Method: Given the role of Nurr1:RXRα activation in the transcriptional regulation of DA biosynthesis genes, we tested whether compound 3 could increase DA levels in wt and ASYN transgenic mice (Tofaris et al. J. Neurosci. 26:3942-3950, 2006), which display reduced striatal DA levels after reaching adulthood. […] Aiming to model PD based on human genetic data, we also tested whether compound 3 could increase DA levels in ASYN transgenic mice. A single IP injection of compound 3 (10 mg/kg) was able increase striatal DA (t test p=0.01069) and DA metabolite levels in ASYN transgenics as well (FIG. 75C) in comparison to mice receiving vehicle.

[5] = test system: striatal DA levels; assay: Striatal dopamine and metabolite levels by HPLC-ECD in wild type mice; type: in vivo, mouse
Method: 4 hours after dosing, animals were killed by cervical dislocation, brains were removed, and the striata were dissected on ice. The samples were immediately frozen and stored at −80° C. until use. The tissues were processed for the analysis by high performance liquid chromatography (HPLC) with an electrochemical detector (ECD) (Emmanouil et al., 2006). The dissected tissues were weighed, homogenized, and deproteinized in 0.2N perchloric acid solution containing 7.9 mM Na2S2O5 and 1.3 mM Na2EDTA. The homogenate was centrifuged at 37,000×g for 30 minutes, and the supernatant was stored at −80° C. until assayed. A reverse-phase ion-pair chromatography was used in all analyses, and the mobile phase consisted of an acetonitrile-50 mM phosphate buffer at pH 3.0, containing 5-octylsulfate sodium salt (300 mg/L) as the ion-pair reagent and (20 mg/L) Na2EDTA. Reference standards were prepared in 0.2 N perchloric acid solution containing 7.9 mM Na2S2O5 and 1.3 mM Na2EDTA. Samples were quantified by comparison of the areas under the peaks with those of reference standards using HPLC software (Chromatography Station for Windows™, Watrex International Inc., San Francisco, Calif.). […]

[6] = test system: C57BL/6 mice injected unilaterally with 6-OHDA; assay: Neuroprotection in the unilateral 6-OHDA mouse model; conditions: for reduction of apomorphine induced contralateral turns: 10 mg/kg IP every 12 hours
[7] = test system: Nurr1 heterozygote 129/SV mice treated with MPTP; assay: Neuroprotection against MPTP in Nurr1 heterozygote 129/SV mice; type: in vivo, mouse; conditions: Nurr1 heterozygote (Nurr1+/−) 129/SV mice
Method: 20 mg/kg MPTP injections were administered 4 times at the zero day of treatment, spaced 2 hours apart. 7 days after the MPTP injections there was approximately an 80% reduction in striatal projections and 40%-50% dopaminergic neuron death in the SN.

[8] = target: Nur77GAL4:RXRαVP16 heterodimers (Homo sapiens (Human), UniProt P19793); assay: GAL4/VP16 chimera specificity luciferase assay in SHSY-5Y; type: cell-based; conditions: GAL4-responsive luciferase reporter
Chain of Nur77GAL4:RXRαVP16 heterodimers (P19793 whole entry, looked up, the tested form may be a part): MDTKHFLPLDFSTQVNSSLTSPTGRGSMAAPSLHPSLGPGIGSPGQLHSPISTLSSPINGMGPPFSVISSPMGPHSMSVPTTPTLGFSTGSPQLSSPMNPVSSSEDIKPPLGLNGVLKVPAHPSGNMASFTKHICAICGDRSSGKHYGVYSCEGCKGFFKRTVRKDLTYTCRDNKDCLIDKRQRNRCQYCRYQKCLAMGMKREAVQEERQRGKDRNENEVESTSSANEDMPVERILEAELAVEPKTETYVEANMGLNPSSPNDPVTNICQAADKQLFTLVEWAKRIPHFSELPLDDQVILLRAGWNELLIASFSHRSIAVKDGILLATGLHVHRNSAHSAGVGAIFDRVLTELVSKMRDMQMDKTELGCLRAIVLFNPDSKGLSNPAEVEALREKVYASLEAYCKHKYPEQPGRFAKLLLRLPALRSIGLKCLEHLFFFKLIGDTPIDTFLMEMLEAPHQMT
Chain of Nur77GAL4:RXRαVP16 heterodimers (P22736 whole entry partner, looked up, the tested form may be a part): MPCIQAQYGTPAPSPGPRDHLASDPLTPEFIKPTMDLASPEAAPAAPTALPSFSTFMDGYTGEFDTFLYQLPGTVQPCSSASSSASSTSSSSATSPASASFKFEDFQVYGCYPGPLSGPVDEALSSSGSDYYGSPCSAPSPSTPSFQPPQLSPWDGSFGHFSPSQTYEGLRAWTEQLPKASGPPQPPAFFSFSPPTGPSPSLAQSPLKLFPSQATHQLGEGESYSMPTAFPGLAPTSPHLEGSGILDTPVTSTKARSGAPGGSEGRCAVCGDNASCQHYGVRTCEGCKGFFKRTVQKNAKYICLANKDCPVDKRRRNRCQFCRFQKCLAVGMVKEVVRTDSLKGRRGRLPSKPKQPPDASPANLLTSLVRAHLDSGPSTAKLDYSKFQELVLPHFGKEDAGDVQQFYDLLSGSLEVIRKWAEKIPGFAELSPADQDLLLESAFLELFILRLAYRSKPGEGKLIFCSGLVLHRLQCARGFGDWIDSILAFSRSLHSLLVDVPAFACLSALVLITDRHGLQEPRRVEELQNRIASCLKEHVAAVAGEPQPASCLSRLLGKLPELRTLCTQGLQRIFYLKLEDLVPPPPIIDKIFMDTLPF
Excerpt: To test off-target effects of compound 3 on complexes aside from Nurr1:RXRα heterodimers, we fused the ligand binding domains of Nurr1, RXRα and a variety of related nuclear receptors to GAL4 DNA-binding domain to create chimeric proteins, while the ligand-binding domain of RXRα was also fused with VP16. These molecular chimeras were co-transfected in pairs with the RXRα:VP16 along with a GAL4-responsive luciferase reporter in SHSY-5Y, which were stimulated with compound 3. […] The above experiments indicate the high degree of selectivity of compound 3 and point to its neuroprotective potential.

[9] = Plasma and brain concentrations by LC-MS/MS after IP administration to mice; type: in vivo, mouse; conditions: mouse, in vivo, ip
Method: FIGS. 68A and 68B show the pharmacokinetic profile of XCT in blood plasma and in the brain of mice injected with this compound. […] Serial tail bleeds (n=3) were used for detection of the compound in plasma 1 and 2 hours after IP administration. Similarly, mice (n=3) were sacrificed 1 and 2 hours after IP administration and brains were dissected. The concentrations of the parent compound in plasma and brain were determined by LC-MS/MS.
The concentrations of the parent compound in plasma and brain were determined by LC/MSMS.
XCT0135908 was administered to mice to test its bioactivity.

[10] = test system: SHSY-5Y cells; assay: H2O2 induced cell death, MTT assay; type: cell-based, human; conditions: 12.5 μM, varying concentrations of H2O2
Excerpt: as §1
We examined the neuroprotective capability of Nurr1:RXRα heterodimer activation in SHSY-5Y cells where death was induced by either the oxidative stress related H2O2 or the mitochondria complex I inhibitor MPP+ (1-methyl-4-phenylpyridinium) (FIG. 72B). […] The protection conferred by compound 3 was Nurr1-dependent, since it was abrogated by knocking-down endogenous Nurr1 mRNA (FIGS. 1E and 72D). […] Rat cortical neurons, co-transfected with CMV-GFP for identification, and CMVLRRK2-G2019S cDNAs show increased apoptosis as assessed by DAPI staining, compared to control neurons co-transfected with a LRRK2 wt cDNA.

For `C=CCc1c(N(C)c2ccc(C(=O)O)cc2)nc(-c2ccccc2)nc1C(F)(F)F` [Example 3, 4-((5-allyl-2-phenyl-6-(trifluoromethyl)pyrimidin-4-yl)(methyl)amino)benzoic acid], the “increase of AADC expression” value [1] was “about 70%”, the “increase of GCH1 expression” value [2] was “about 42%” and the “increase of TH expression” value [3] was “about 90%”. For the same molecule, the “striatal DA and DA metabolite levels” value [4] was “increase”, the “increase of striatal DA levels and dopamine metabolite (DOPAC and HVA) levels” value ([5]; wild type C57/BL6 mice, single IP 20 mg/kg, 4 hours after dosing) was 33% and the “striatal DA and DA metabolite levels” value ([5]; wt mice, single IP 10 mg/kg, 4 hours) was “increased”. For the same molecule, the “motor coordination (rotarod test)” value ([6]; 6-OHDA, 10 mg/kg IP every 12 hours for 14 days) was “almost entirely restored to control levels”, the “reduction of apomorphine induced contralateral turns” value ([6]; 6-OHDA, vs vehicle, listed as Compound 3) was “approximately 8 fold” and the “reduction of apomorphine induced contralateral turns” value ([6]; 6-OHDA, vs vehicle, listed as compound 3) was “over 8 fold”. For the same molecule, the “increase in number of surviving neuronal bodies (SNpc)” value ([6]; 6-OHDA, IP 10 mg/kg every 12 hours for 15 days) was 256.55%, the “preservation of striatal TH(+) DAergic projections (innervation)” value ([6]; 6-OHDA, vs vehicle) was 10 fold and the Rotarod test improvement ([6]; unilateral 6-OHDA, compound 3 vs vehicle (n=5)) was 12 fold. The “neuroprotection against MPTP toxicity (surviving neuronal bodies)” value [7] was “did not lead to a statistically significant increase; also recorded: abolished”, the “activation of Nur77GAL4:RXRαVP16 heterodimers” value [8] was “partially activated” and the brain penetration [9] was “reaching the brain”. For the same molecule, the half-life ([9]; 1 mg/kg) was ~2 h and the “cell survival against H2O2” value [10] was “significantly increased cell survival”.
